26 compounds from patent US10844044B2 (Vanderbilt University, priority 2018, dated 2020) can be followed below.

SMILES strings stand for the structures.

For the first assay, the system named is MV4:11 human cancer cell lines. The assay is described as follows: Anti-proliferative activity, CellTiter-Glo viability assay, 7 day protocol. Format: cell-based. The conditions noted are these: Homo sapiens, 168 h, MV4:11 cells, 7 day incubation, read-out: GI50 on cellular proliferation of MV4:11 human cancer cell lines. The protocol:
Viability assays are performed by dispensing […] into each well of an opaque 384-well plate and adding compounds at the indicated concentrations in a final volume of 32 μL and a final concentration of DMSO of 0.1% for all samples. After a set incubation period, 7 day protocol, the viability of cells in each well is assessed using the CellTiter-Glo assay (Promega), read on a GloMax 96 Microplane Luminometer (Promega). Serial dilutions of each cell type are included in all assays to generate standard curves and determine assay measurements are taken within the dynamic range of the instrument. GI50 values are calculated based on three biological replicates, each with three technical replicates. Data are expressed as mean plus/minus S.E.M.
For `Cc1cc(CNC(=O)c2cc(Cn3ccn(C)c3=N)cc(-c3c(C)cc(F)cc3C)c2)ccc1Cl` [Example 59], the GI50 was 0.46 µM.

The same assay, now with this note: Homo sapiens, MV4-11, 168 h, MV4:11 cells, 7 day incubation, read-out: GI50 on cellular proliferation of MV4:11 human cancer cell lines.
On to `Cc1cc(F)ccc1-c1cc(Cn2ccn(C)c2=N)cc(C(=O)NCc2ccc(Cl)c(Cl)c2)n1` [Example 5, N-(3,4-dichlorobenzyl)-6-(4-fluoro-2-methylphenyl)-4-((2-imino-3-methyl-2,3-dihydro-1H-imidazol-1-yl)methyl)picolinamide], for which the GI50 was 0.24 µM.
Same read-out and setting: with `Cc1cc(-c2cc(Cn3ccn(C)c3=N)cc(C(=O)NCc3ccc(Cl)c(Cl)c3)c2)ccn1` [Example 22, N-(3,4-Dichlorobenzyl)-3-((2-imino-3-methyl-2,3-dihydro-1H-imidazol-1-yl)methyl)-5-(2-methylpyridin-4-yl)benzamide] the figure was 14 µM; with `COc1cnccc1-c1cc(Cn2ccn(C)c2=N)cc(C(=O)NCc2ccc(Cl)c(Cl)c2)c1` [Example 23, N-(3,4-Dichlorobenzyl)-3-((2-imino-3-methyl-2,3-dihydro-1H-imidazol-1-yl)methyl)-5-(3-methoxypyridin-4-yl)benzamide], 6.2 µM; with `Cn1nccc1-c1cc(Cn2ccn(C)c2=N)cc(C(=O)NCc2ccc(Cl)c(Cl)c2)c1` [Example 26, N-(3,4-Dichlorobenzyl)-3-((2-imino-3-methyl-2,3-dihydro-1H-imidazol-1-yl)methyl)-5-(1-methyl-1H-pyrazol-5-yl)benzamide], 0.79 µM.
For the compound `Cc1cc([C@@H](C)NC(=O)c2cc(Cn3ccn(C)c3=N)cc(-c3ccc(F)cc3C)c2)ccc1F` [Example 29, (R)-4′-Fluoro-N-(1-(4-fluoro-3-methylphenyl)ethyl)-5-((2-imino-3-methyl-2,3-dihydro-imidazol-1-yl)methyl)-2′-methyl-[1,1′-biphenyl]-3-carboxamide], the GI50 turned out to be 0.78 µM.
Still for that read-out and setting: with `Cc1cc([C@H](C)NC(=O)c2cc(Cn3ccn(C)c3=N)cc(-c3ccc(F)cc3C)c2)ccc1F` [Example 30, (S)-4′-Fluoro-N-(1-(4-fluoro-3-methylphenyl)ethyl)-5-((2-imino-3-methyl-2,3-dihydro-1H-imidazol-1-yl)methyl)-2′-methyl-[1,1′-biphenyl]-3-carboxamide] the figure was 0.1 µM.
Regarding `Cc1cc(F)ccc1-c1cc(Cn2ccn(C)c2=N)cc(C(=O)N[C@@H](C)c2ccc(F)c(C(F)(F)F)c2)c1` [Example 31, (S)-4′-Fluoro-N-(1-(4-fluoro-3-(trifluoromethyl)phenyl)ethyl)-5-((2-imino-3-methyl-2,3-dihydro-1H-imidazol-1-yl)methyl)-2′-methyl-[1,1′-biphenyl]-3-carboxamide], the GI50 stood at 0.3 µM.
On to `Cc1cc(F)ccc1-c1cc(Cn2ccn(C)c2=N)cc(C(=O)N[C@H](C)c2ccc(F)c(C(F)(F)F)c2)c1` [Example 32, (R)-4′-Fluoro-N-(1-(4-fluoro-3-(trifluoromethyl)phenyl)ethyl)-5-((2-imino-3-methyl-2,3-dihydro-1H-imidazol-1-yl)methyl)-2′-methyl-[1,1′-biphenyl]-3-carboxamide], for which the GI50 turned out to be 1.5 µM.
The same measure, in the same setting: with `Cc1cc([C@H](NC(=O)c2cc(Cn3ccn(C)c3=N)cc(-c3ccc(F)cc3C)c2)C(F)(F)F)ccc1F` [Example 45, (S)-4′-fluoro-5-((2-imino-3-methyl-2,3-dihydro-1H-imidazol-1-yl)methyl)-2′-methyl-N-(2,2,2-trifluoro-1-(4-fluor-3-methylphenyl)ethyl)-[1,1′-biphenyl]-3-carboxamide] the figure was 1.8 µM.
On to `Cc1cc([C@@H](NC(=O)c2cc(Cn3ccn(C)c3=N)cc(-c3ccc(F)cc3C)c2)C2CC2)ccc1F` [Example 54, (S)—N-(Cyclopropyl(4-fluoro-3-methylphenyl)methyl)-4′-fluoro-5-((2-imino-3-methyl-2,3-dihydro-1H-imidazol-1-yl)methyl)-2′-methyl-[1,1′-biphenyl]-3-carboxamide], for which the GI50 is less than 0.1 µM.
On the same count and under the same terms, with `Cc1cc(CNC(=O)c2cc(Cn3ccn(C)c3=N)cc(-c3ncc(F)cc3C)c2)ccc1Cl` [Example 70, N-(4-Chloro-3-methylbenzyl)-3-(5-fluoro-3-methylpyridin-2-yl)-5-((2-imino-3-methyl-2,3-dihydro-1H-imidazol-1-yl)methyl)benzamide] the figure was 2.4 µM; with `Cc1cc([C@@H](NC(=O)c2cc(Cn3ccn(C)c3=N)cc(-c3ncc(F)cc3C(F)(F)F)c2)C2CC2)ccc1F` [Example 72, (S)—N-(Cyclopropyl(4-fluoro-3-methylphenyl)methyl)-3-(5-fluoro-3-(trifluoromethyl)pyridin-2-yl)-5-((2-imino-3-methyl-2,3-dihydro-1H-imidazol-1-yl)methyl)benzamide], 0.18 µM.
For the compound `Cc1cc([C@@H](NC(=O)c2cc(Cn3ccn(C)c3=N)cc(-c3ccc(F)cc3OC(F)F)c2)C2CC2)ccc1F` [Example 73, (S)—N-(cyclopropyl(4-fluoro-3-methylphenyl)methyl)-2′-(difluoromethoxy)-4′-fluoro-5-((2-imino-3-methyl-2,3-dihydro-1-imidazol-1-yl)methyl)-[1,1′-biphenyl]-3-carboxamide], the GI50 was 1.8 µM.
On the same count and under the same terms, then `COc1cc(OC)cc(C(NC(=O)c2cc(Cn3ccn(C)c3=N)cc(-c3ncc(F)cc3C(F)(F)F)c2)C2CC2)c1` (centres unmarked) [Example 74, N-(Cyclopropyl(3,5-dimethoxyphenyl)methyl)-3-(5-fluoro-3-(trifluoromethyl)pyridin-2-yl)-5-((2-imino-3-methyl-2,3-dihydro-1H-imidazol-1-yl)methyl)benzamide], with 4.5 µM.
As for `Cc1ccnc(C(NC(=O)c2cc(Cn3ccn(C)c3=N)cc(-c3ncc(F)cc3C(F)(F)F)c2)C2CC2)c1` (centres unmarked) [Example 75, N-(Cyclopropyl(4-methylpyridin-2-yl)methyl)-3-(5-fluoro-3-(trifluoromethyl)pyridin-2-yl)-5-((2-imino-3-methyl-2,3-dihydro-1H-imidazol-1-yl)methyl)benzamide], the GI50 came out at 12 µM.
`Cc1cc(CNC(=O)c2cc(Cn3ccn(C)c3=N)cc(-c3cccnc3C(F)(F)F)c2)ccc1Cl` [Example 76, N-(4-Chloro-3-methylbenzyl)-3-((2-imin-3-methyl-2,3-dihydro-1H-imidazol-1-yl)methyl)-5-(2-(trifluoromethyl)pyridin-3-yl)benzamide]: the GI50 was determined as 0.26 µM.
The same measure, in the same setting: with `Cc1ccnc(C(NC(=O)c2cc(Cn3ccn(C)c3=N)cc(-c3cccnc3C(F)(F)F)c2)C2CC2)c1` (centres unmarked) [Example 77, N-(Cyclopropyl(4-methylpyridin-2-yl)methyl)-3-((2-imino-3-methyl-2,3-dihydro-1H-imidazol-1-yl)methyl)-5-(2-(trifluoromethyl)pyridin-3-yl)benzamide] the figure was 1.2 µM; with `COc1ccnc([C@@H](NC(=O)c2cc(Cn3ccn(C)c3=N)cc(-c3ccc(F)cc3C)c2)C2CC2)c1` [Example 97], 0.25 µM.

Another assay addresses WDR5 (Homo sapiens (Human), UniProt P61964). Description: TR-FRET binding assay (displacement of 10mer-Thr-FAM probe from WDR5). The following applies: read-out: Ki for Inhibition of WDR5 by TR-FRET assay; TR-FRET, 10mer-Thr-FAM probe, WDR5-His tag 2 nM, pH 7.0.
What is called Ki is the equilibrium dissociation constant of an inhibitor or competing ligand from its target. Regarding `Cc1cc([C@@H](NC(=O)c2cc(Cn3cc(F)ccc3=N)cc(-c3cccnc3C(F)(F)F)c2)C2CC2)ccc1F` [Example 354, (S)—N-(cyclopropyl(4-fluoro-3-methylphenyl)methyl)-3-((5-fluoro-2-iminopyridin-1(2H)-yl)methyl)-5-(2-(trifluoromethyl)pyridin-3-yl)benzamide], the inhibition constant Ki is less than 0.0001 µM.
The same measure, in the same setting: then `Cc1ccnc(C(NC(=O)c2cc(Cn3ccn(C)c3=N)cc(-c3ccc(F)cc3C)n2)C2CC2)c1` (centres unmarked) [Example 356, N-(Cyclopropyl(4-methylpyridin-2-yl)methyl)-6-(4-fluoro-2-methylphenyl)-4-((2-imino-3-methyl-2,3-dihydro-1H-imidazol-1-yl)methyl)picolinamide], with 0.182 µM; and `COc1ccnc(CNC(=O)c2cc(Cn3ccn(C)c3=N)cc(-c3ccc(F)cc3C)n2)c1` [Example 357, 6-(4-Fluoro-2-methylphenyl)-4-((2-imino-3-methyl-2,3-dihydro-1H-imidazol-1-yl)methyl)-N-((4-methoxypyridin-2-yl)methyl)picolinamide], with 0.0013 µM; and `Cc1cc(F)ccc1-c1cc(Cn2ccn(C)c2=N)cc(C(=O)NCc2ccc(Cl)c(F)c2)n1` [Example 359, N-(4-Chloro-3-fluorobenzyl)-6-(4-fluoro-2-methylphenyl)-4-((2-imino-3-methyl-2,3-dihydro-1H-imidazol-1-yl)methyl)picolinamide], with 0.0087 µM.
The same measure, in the same setting: then `Cc1cc(F)ccc1-c1cc(Cn2ccn(C)c2=N)cc(C(=O)N[C@H](C)c2ccc(F)c(C(F)(F)F)c2)n1` [Example 360, (R)-6-(4-fluoro-2-methylphenyl)-N-(1-(4-fluoro-3-(trifluoromethyl)phenyl)ethyl)-4-((2-imino-3-methyl-2,3-dihydro-1H-imidazol-1-yl)methyl)picolinamide], with 0.001 µM; and `Cc1cc([C@@H](NC(=O)c2cc(CN3CCCOC3=N)cc(-c3cccnc3C(F)(F)F)c2)C2CC2)ccc1F` [Example 362, (S)—N-(Cyclopropyl(4-fluoro-3-methylphenyl)methyl)-3-((2-imino-1,3-oxazinan-3-yl)methyl)-5-(2-(trifluoromethyl)pyridin-3-yl)benzamide], with 0.00072 µM; and `Cc1cc([C@@H](NC(=O)c2cc(Cn3cnn(C)c3=N)cc(-c3cn(C)nc3C(F)(F)F)c2)C2CC2)ccc1F` [Example 363, (S)—N-(Cyclopropyl(4-fluoro-3-methylphenyl)methyl)-3-((5-imino-1-methyl-1,5-dihydro-4H-1,2,4-triazol-4-yl)methyl)-5-(1-methyl-3-(trifluoromethyl)-H-pyrazol-4-yl)benzamide], with less than 0.0001 µM.
